# From article PMC5636616, “Studies on the Interaction of the Histone Demethylase KDM5B with Tricarboxylic Acid Cycle Intermediates” (Journal of Molecular Biology, 2017)
# “Also recorded” adds a separate entry of the source. Like-named read-outs stand apart in the source and are kept apart here.
# How the values were obtained:
# [1] = tested on: T1, over-expressed KDM5B in U2-OS cells; assay: Immunofluorescence assay of H3K4me3 demethylation in U2-OS cells overexpressing KDM5B; format: cell-based, human; details: for inhibition of KDM5B-mediated H3K4me3 demethylation (IF): U2-OS cells overexpressing Flag-tagged WT KDM5B, 24 h treatment, esters dosed up to 5–10 mM
# T1 construct: expressed in transfected cells; host or cells: U2-OS osteosarcoma cells, transient transfection with pCDNA5-FRT-TO-3FLAG vector
# Description: EC50 curves for cells overexpressing Flag-tagged KDM5B. […] Results for dimethyl-2OG (a), dimethyl-succinate (b), dimethyl-D-2HG (c), dimethyl-L-2HG (d), octyl-D-2HG (e), octyl-L-2HG (f), and KDOAM-25 (g). Dashed lines represent IF levels in non-inhibitor controls.
# The cellular effects of dimethyl ester precursors of TCA cycle-related metabolites as potential inhibitors of H3K4me3 demethylation were then assessed. We used an established immunofluorescence (IF) procedure with ectopically overexpressed wild-type KDM5B (WT KDM5B) in U2-OS cells and anti-H3K4me3 antibody monitoring for changes in H3K4me3 methylation levels. […] Cells with overexpressed KDM5B were treated with different concentrations of the TCA cycle-related pro-drug esters (previously established as cell permeable in other cell-based studies), [51], [52], [53], [54] for 24 h, the H3K4me3 levels were then analyzed in the transfected cells. The reported KDM5B inhibitor KDOAM-25 ((2)-((((2)-(((2)-(dimethylamino)ethyl)(ethyl)amino)-(2)-oxoethyl)amino)methyl)isonicotinamide) was used as a positive control for inhibition, [55].
# Immunofluorescent cell-based assays were performed as reported. The human U2-OS osteosarcoma cells were cultured as a monolayer in Dulbecco's modified Eagle's medium (Invitrogen) supplemented with 10% heat-inactivated fetal bovine serum (Life Technologies) and 1% Glutamax. […] Cells were transiently transfected using cDNA and Lipofectamine 3000 (Life Technologies). Four hours after transfection, the cells were subjected to treatment with serial dilutions of compound. After 24 h, the cells were fixed with 4% formaldehyde and stained with anti-Flag antibody (Sigma F3165), an anti-methylated histone antibody (H3K4me3 DiagenodeC15410003). The cells were then stained with secondary antibodies [Alexa Fluor 488 and Alexa Fluor 568-labeled (Life Technologies)] and 4’,6-diamidino-2-phenylindole. Image acquisition was conducted using Operetta High Content Imaging System (PerkinElmer), and image analysis was performed using the Columbus software (PerkinElmer). A minimum threshold for anti-Flag intensity was set to ensure that only cells highly producing the demethylase were analyzed.
# KDM5B [2] = biological target: T2, KDM5B (Homo sapiens, UniProt Q9UGL1); assay: KDM5B kinetic assays, MALDI-TOF-MS (Km, Ki with respect to 2OG); format: biochemical; details: for mode of inhibition: with respect to 2OG
# T2 construct: purified recombinant KDM5B (produced in Sf9 insect cells, M1-R822); made in house; host or cells: Sf9 insect cells
# T2 sequence (Q9UGL1 1-822): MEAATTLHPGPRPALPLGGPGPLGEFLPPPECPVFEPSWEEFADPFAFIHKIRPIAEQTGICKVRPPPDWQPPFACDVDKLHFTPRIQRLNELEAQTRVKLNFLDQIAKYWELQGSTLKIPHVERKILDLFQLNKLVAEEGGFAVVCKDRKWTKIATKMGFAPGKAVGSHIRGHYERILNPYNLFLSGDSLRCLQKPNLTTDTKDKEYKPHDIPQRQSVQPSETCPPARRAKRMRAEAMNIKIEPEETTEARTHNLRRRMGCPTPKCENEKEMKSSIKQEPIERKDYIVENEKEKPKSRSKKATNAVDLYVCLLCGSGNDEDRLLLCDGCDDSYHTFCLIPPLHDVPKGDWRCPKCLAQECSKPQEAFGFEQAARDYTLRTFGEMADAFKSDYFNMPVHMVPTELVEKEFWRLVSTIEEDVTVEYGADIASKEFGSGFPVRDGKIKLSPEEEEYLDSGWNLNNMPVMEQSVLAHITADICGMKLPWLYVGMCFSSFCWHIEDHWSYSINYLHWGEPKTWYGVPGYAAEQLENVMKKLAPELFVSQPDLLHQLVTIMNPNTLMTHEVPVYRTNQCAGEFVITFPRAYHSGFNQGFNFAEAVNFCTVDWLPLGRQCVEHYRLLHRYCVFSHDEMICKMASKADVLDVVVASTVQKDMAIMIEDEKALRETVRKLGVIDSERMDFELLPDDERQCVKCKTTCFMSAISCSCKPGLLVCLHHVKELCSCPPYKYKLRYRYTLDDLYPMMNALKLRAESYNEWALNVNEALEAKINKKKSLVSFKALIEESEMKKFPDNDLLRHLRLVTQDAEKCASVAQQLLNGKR
# KDM5B [3] = biological target: T2, KDM5B; assay: KDM5B inhibition assay, MALDI-TOF-MS (IC50); format: biochemical
# U2-OS cells = assay: Toxicity to U2-OS cells in the cellular assay; format: cell-based, human; details: data not shown
# isolated KDM5B = tested on: isolated KDM5B; parameters: method as in PMID 28262558; details: AlphaScreen assay; cited from earlier work
# KDM4E = details: cited from earlier work; for IC50: enzyme concentration 2 μM
# TET2 = details: cited from earlier work
# ABH2 = tested on: ABH2; parameters: method as in PMID 21460794; details: read-out: Km^app(2OG); cited from earlier work
# KDM4A = tested on: KDM4A; parameters: method as in PMID 21460794; details: read-out: Km^app(2OG); cited from earlier work
# BBOX = details: cited from earlier work; for IC50: enzyme concentration 0.025 μM
# TET1 = details: cited from earlier work
# KDM5B [4] = biological target: T2, KDM5B; details: FDH-coupled assay, truncated KDM5B, cited from earlier work
# FIH = details: cited from earlier work
# KDM4C = tested on: KDM4C; parameters: method as in PMID 21460794; details: read-out: Km^app(2OG); cited from earlier work
# KDM2A = tested on: KDM2A; parameters: method as in PMID 21460794; details: cited from earlier work; for IC50: enzyme concentration 2 μM
# PHD2 = details: cited from earlier work
# [5] = 0.6 μM KDM5B, 3 μM 2OG, 5 μM H3K4me2(1–21), 10 μM Fe(II), 500 μM L-ascorbate, pH 7.5, errors 95% confidence intervals
compound,measurement,setting,value
CCCCCCCCOC(=O)[C@@H](O)CCC(=O)O [octyl-L-2HG],inhibition of KDM5B-mediated H3K4me3 demethylation (IF),[1],do not inhibit; also recorded: no inhibition of KDM5B activity was observed
O=C(O)CC(=O)C(=O)O [Oxaloacetate],Vm^app,KDM5B [2]; in presence of 15 μM oxaloacetate,0.0066 µM/s
same,Vm^app,KDM5B [2]; in presence of 50 μM oxaloacetate,0.0070 µM/s
same,Vm^app,KDM5B [2]; in presence of 100 μM oxaloacetate,0.0069 µM/s
same,mode of inhibition,KDM5B [2],2OG competitive manner
same,IC50,KDM5B [3]; read-out: IC50,15 ± 10 µM
"COC(=O)CCC(=O)OC [dimethyl-succinate, dimethylsuccinate]",inhibition of KDM5B-mediated H3K4me3 demethylation (IF),[1],do not inhibit
COC(=O)/C=C/C(=O)OC [dimethylfumarate],inhibition of KDM5B-mediated H3K4me3 demethylation (IF),[1],no inhibition of KDM5B activity was observed
same,inhibition of KDM5B-mediated H3K4me3 demethylation (IF),[1]; listed as Dimethylfumarate,did not show any inhibition at lower concentrations
same,toxic concentration,U2-OS cells,higher than 400 μM
"CCN(CCN(C)C)C(=O)CNCc1cc(C(N)=O)ccn1 [KDOAM-25, (2)-((((2)-(((2)-(dimethylamino)ethyl)(ethyl)amino)-(2)-oxoethyl)amino)methyl)isonicotinamide]",IC50,isolated KDM5B,0.019 µM
same,inhibition of KDM5B-mediated H3K4me3 demethylation (IF),[1],manifested the expected levels of inhibition; also recorded: observe inhibition
same,compound concentration at which H3K4me3 fluorescence reaches levels of KDM5B Mut,"[1]; U2-OS cells overexpressing WT KDM5B, 24 h",1 mM
"O=C(O)CCC(=O)C(=O)O [2OG, 2-oxoglutarate]",Km,KDM4E; read-out: Km^app(2OG),13.2 µM
same,Km,TET2; read-out: Km^app(2OG),60 ± 15 µM
same,Km,ABH2,10 µM
same,Km,KDM4A,6 µM
same,Km,BBOX; read-out: Km^app(2OG),470 µM
same,Km,TET1; read-out: Km^app(2OG),55 ± 20 µM
same,Km,KDM5B [4]; read-out: Km^app(2OG),6 µM
same,Km,FIH; read-out: Km^app(2OG),110 ± 20 µM
same,Km,KDM4C,4 µM
same,Km,KDM2A; read-out: Km^app(2OG),12.5 µM
same,Km,PHD2; read-out: Km^app(2OG),13 ± 2 µM
"H3K4me2(1–21): 21-mer histone H3 peptide fragment dimethylated at lysine-4, KDM5B substrate [reference compound]",Km,"KDM5B [2]; KDM5B(1–822), 10 μM 2OG, read-out: Km^app(H3K4me2(1–21))",~0.5 µM
same,Km,KDM5B [4]; read-out: Km^app for H3K4me2(1–21),0.85 µM
"O=C(O)CCC(=O)O [Succinate, succinate]",IC50,KDM4E,320 µM
same,IC50,TET2,570 ± 190 µM
same,Ki,"KDM5B [2]; competitive inhibition model, shared/global fit, read-out: Ki (best-fit value, GraphPad Prism global fit)",26.8 µM
same,Vm^app,KDM5B [2]; in presence of 30 μM succinate,0.0044 µM/s
same,Vm^app,KDM5B [2]; in presence of 100 μM succinate,0.0046 µM/s
same,Vm^app,KDM5B [2]; in presence of 300 μM succinate,0.0046 µM/s
same,mode of inhibition,KDM5B [2],2OG competitive manner
same,IC50,TET1,540 ± 100 µM
same,IC50,KDM5B [3]; read-out: IC50,62 ± 19 µM
same,IC50,FIH,> 1000 µM
same,IC50,PHD2,19 µM
O=C(O)CC(O)(CC(=O)O)C(=O)O [Citrate],IC50,KDM5B [3]; [5],Inactive
same,IC50,KDM5B [3]; read-out: IC50,> 1000 µM
same,inhibition at 1000 µM,KDM5B [3]; read-out: inhibition at 1 mM,18%
CCCCCCCCOC(=O)[C@H](O)CCC(=O)O [octyl-D-2HG],inhibition of KDM5B-mediated H3K4me3 demethylation (IF),[1],do not inhibit; also recorded: no inhibition of KDM5B activity was observed
"O=C(O)CC[C@@H](O)C(=O)O [D-2HG, D-2-hydroxyglutarate]",IC50,TET2,5000 µM
same,IC50,BBOX,13200 µM
same,IC50,KDM2A,106 ± 22 µM
O=C(O)/C=C/C(=O)O [Fumarate],IC50,KDM4E,2.3 µM
same,IC50,TET2,400 ± 70 µM
same,IC50,TET1,390 ± 160 µM
same,IC50,KDM5B [3],210 ± 80 µM
same,IC50,FIH,> 1000 µM
same,IC50,PHD2,3 µM
"CC(=O)C(=O)O [Pyruvate, pyruvate]",IC50,KDM5B [3]; [5],very weak KDM5B inhibitor
same,IC50,KDM5B [3]; read-out: IC50,703 ± 26 µM
COC(=O)CC[C@@H](O)C(=O)OC [dimethyl-D-2HG],inhibition of KDM5B-mediated H3K4me3 demethylation (IF),[1],do not inhibit; also recorded: no inhibition of KDM5B activity was observed
"O=C(O)CC(O)C(=O)O (centres unmarked) [Malate, malate]",IC50,KDM5B [3]; read-out: IC50,127 ± 72 µM
"O=C(O)CC[C@H](O)C(=O)O [L-2HG, L-2-hydroxyglutarate]",IC50,TET2,1600 µM
same,IC50,BBOX,142 ± 30 µM
same,IC50,TET1,1000 µM
same,IC50,FIH; enzyme concentration 1 μM,189 ± 34 µM
same,IC50,KDM2A,48 ± 15 µM
"COC(=O)CCC(=O)C(=O)OC [dimethyl-2OG, Dimethyl-2-oxoglutarate]",inhibition of KDM5B-mediated H3K4me3 demethylation (IF),[1],do not inhibit; also recorded: no inhibition of KDM5B activity was observed
same,change in H3K4me3 levels / KDM5B activity in response to compound,"[1]; U2-OS cells overexpressing KDM5B, increasing concentrations, 24 h",No decrease in the H3K4me3 levels was observed; also recorded: did not show any effect
COC(=O)CC[C@H](O)C(=O)OC [dimethyl-L-2HG],inhibition of KDM5B-mediated H3K4me3 demethylation (IF),[1],do not inhibit; also recorded: no inhibition of KDM5B activity was observed
